System: Gastric Acid Secretion
Test: Histamine-stimulated gastric acid secretion in Heidenhain pouch dogs
Format: in vivo, beagle dogs
Conditions: histamine s.c. 1 hour after drug administration
Procedure: Six male beagle dogs (13 to 17kg) with well-established Heidenhain pouches were used for the construction of gastric acid secretion response curves. Food was withheld but water allowed for 18 hours before each experiment. Histamine (60 Mg/kg/hr) was administered subcutaneously 1 hour after drug administration. The pouch secretion was allowed to drain into a collection vessel which was changed every 15 minutes. Gastric juice volume was recorded, and acid concentration was determined by titration with 0.05N NaOH up to pH 7.0 using an automatic titrator (Hiranuma Sangyo Co., COMTITE-7).
With `Cc1nc2c(OCC3CCCCC3)cccn2c1CC#N` [Example 11, 3-cyanomethyl-8-cyclohexylmethoxy-2-methylimidazo-[1,2-a]-pyridine] the “Gastric Acid Secretion Inhibitory Rate (%) Pouch Dog 3 mg/kg p.o.” value was 67%. With `CCCCCOc1cccn2c(CC#N)c(C)nc12` [Example 12, 3-Cyanomethyl-2-methyl-8-pentyloxyimidazo-[1,2-a]pyridine] the “Gastric Acid Secretion Inhibitory Rate (%) Pouch Dog 3 mg/kg p.o.” value was 61%. For `CC(C)=CCOc1cccn2c(CC#N)c(C)nc12` [Example 16, 3-Cyanomethyl-2-methyl-8-[(3-methyl-2-butenyl)-oxy]imidazo[1,2-a]pyridine], the “Gastric Acid Secretion Inhibitory Rate (%) Pouch Dog 3 mg/kg p.o.” value was 82%. With `Cc1nc2c(OCc3ccccc3)cccn2c1CC#N` [Known compound A, reference compound] the “Gastric Acid Secretion Inhibitory Rate (%) Pouch Dog 3 mg/kg p.o.” value was 36%. For `C=CCOc1cccn2c(CC#N)c(C)nc12` [Known compound B, reference compound], the “Gastric Acid Secretion Inhibitory Rate (%) Pouch Dog 3 mg/kg p.o.” value was 21%.

System: not listed separately
Test: in vivo
Set-up: species or system Fischer-rats
Conditions: rat, po
Procedure: That is, LD50(p.o.) of the compound was higher than 1,000 mg/kg.
Work on `CC(C)=CCOc1cccn2c(CC#N)c(C)nc12` [Example 16, 3-Cyanomethyl-2-methyl-8-[(3-methyl-2-butenyl)-oxy]imidazo[1,2-a]pyridine] yielded an LD50 at 24 h greater than 1000 mg/kg.

From EP0266890A1, “Imidazopyridine derivatives, their production, and pharmaceutical compositions containing them” (YAMANOUCHI PHARMACEUTICAL CO. LTD., priority 1986, dated 1988)
